Reference: ChEMBL document CHEMBL5465560, “Selectivity Literature for EUbOPEN Chemogenomic Library” (2024)

What was measured:
[1] = target: Cell division control protein 42 homolog (Homo sapiens) (UniProt P60953); experiment: Selectivity interaction (SelectScreen profiling (Invitrogen)) EUB0000607a CDC42; details: at 2 µM
[2] = target: Calcium/calmodulin-dependent protein kinase type 1D (Homo sapiens) (UniProt Q8IU85); experiment: Selectivity interaction (ActivX KiNativ screen (kinase selectivity in THP-1 cell lysates)) EUB0000639a CAMK1D; type: subcellular; details: lysate, at 0.01 µM
Sequence of Calcium/calmodulin-dependent protein kinase type 1D (Homo sapiens) (Q8IU85 whole entry, looked up): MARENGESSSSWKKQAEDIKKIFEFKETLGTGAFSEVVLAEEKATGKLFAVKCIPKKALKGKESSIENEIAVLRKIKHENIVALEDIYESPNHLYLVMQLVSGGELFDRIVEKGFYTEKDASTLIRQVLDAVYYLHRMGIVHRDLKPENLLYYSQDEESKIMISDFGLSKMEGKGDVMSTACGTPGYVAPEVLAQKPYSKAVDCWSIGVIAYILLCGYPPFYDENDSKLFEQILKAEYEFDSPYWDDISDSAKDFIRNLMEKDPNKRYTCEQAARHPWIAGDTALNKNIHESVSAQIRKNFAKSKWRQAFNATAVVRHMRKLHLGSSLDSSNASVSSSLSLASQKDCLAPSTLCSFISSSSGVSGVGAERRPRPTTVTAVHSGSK

[3] = target: Mitogen-activated protein kinase kinase kinase kinase 1 (Homo sapiens) (UniProt Q92918); experiment: Selectivity interaction (ActivX KiNativ screen (kinase selectivity in THP-1 cell lysates)) EUB0000639a MAP4K1; type: subcellular; details: lysate, at 0.01 µM
Sequence of Mitogen-activated protein kinase kinase kinase kinase 1 (Homo sapiens) (Q92918 whole entry, looked up): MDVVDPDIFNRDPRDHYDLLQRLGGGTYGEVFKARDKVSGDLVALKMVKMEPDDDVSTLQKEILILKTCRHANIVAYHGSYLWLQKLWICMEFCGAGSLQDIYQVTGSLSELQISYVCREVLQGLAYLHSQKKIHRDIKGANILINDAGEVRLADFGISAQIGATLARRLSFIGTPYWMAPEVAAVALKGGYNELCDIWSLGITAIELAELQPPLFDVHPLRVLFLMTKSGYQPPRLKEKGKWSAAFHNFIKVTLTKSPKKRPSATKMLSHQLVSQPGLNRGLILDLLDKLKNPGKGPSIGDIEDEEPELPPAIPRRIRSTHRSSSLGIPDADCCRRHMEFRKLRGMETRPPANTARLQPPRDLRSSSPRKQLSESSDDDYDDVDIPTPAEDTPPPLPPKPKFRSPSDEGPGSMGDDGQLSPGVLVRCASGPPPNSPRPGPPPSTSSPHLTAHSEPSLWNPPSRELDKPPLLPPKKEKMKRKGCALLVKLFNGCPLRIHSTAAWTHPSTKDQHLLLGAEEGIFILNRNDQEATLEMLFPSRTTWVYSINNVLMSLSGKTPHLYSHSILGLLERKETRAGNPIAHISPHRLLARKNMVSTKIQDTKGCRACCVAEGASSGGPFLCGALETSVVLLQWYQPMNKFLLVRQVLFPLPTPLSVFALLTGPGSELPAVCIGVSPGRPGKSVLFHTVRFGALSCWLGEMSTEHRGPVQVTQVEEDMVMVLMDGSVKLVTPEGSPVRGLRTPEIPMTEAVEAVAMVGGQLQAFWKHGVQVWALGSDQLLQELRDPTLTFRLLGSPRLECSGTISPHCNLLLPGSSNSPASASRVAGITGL

[4] = target: T1, Dual specificity mitogen-activated protein kinase kinase 4 (Homo sapiens) (UniProt P45985); experiment: Selectivity interaction (Kinase panel (DSF assay)) EUB0001559a MAP2K4
T1 sequence (whole entry): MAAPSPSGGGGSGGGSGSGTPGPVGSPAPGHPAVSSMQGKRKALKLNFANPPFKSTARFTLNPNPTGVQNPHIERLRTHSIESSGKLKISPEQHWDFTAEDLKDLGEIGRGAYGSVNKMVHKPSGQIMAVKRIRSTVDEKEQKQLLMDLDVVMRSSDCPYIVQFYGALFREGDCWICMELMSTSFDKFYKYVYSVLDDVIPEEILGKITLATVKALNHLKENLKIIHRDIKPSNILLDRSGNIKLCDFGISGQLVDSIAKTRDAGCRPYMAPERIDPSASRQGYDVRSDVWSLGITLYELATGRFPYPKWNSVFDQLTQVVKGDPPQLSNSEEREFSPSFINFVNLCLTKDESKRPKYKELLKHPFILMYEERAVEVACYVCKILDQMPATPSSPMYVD

[5] = target: T2, Serine/threonine-protein kinase LATS1 (Homo sapiens) (UniProt O95835); details: at 10 µM
T2 sequence (whole entry): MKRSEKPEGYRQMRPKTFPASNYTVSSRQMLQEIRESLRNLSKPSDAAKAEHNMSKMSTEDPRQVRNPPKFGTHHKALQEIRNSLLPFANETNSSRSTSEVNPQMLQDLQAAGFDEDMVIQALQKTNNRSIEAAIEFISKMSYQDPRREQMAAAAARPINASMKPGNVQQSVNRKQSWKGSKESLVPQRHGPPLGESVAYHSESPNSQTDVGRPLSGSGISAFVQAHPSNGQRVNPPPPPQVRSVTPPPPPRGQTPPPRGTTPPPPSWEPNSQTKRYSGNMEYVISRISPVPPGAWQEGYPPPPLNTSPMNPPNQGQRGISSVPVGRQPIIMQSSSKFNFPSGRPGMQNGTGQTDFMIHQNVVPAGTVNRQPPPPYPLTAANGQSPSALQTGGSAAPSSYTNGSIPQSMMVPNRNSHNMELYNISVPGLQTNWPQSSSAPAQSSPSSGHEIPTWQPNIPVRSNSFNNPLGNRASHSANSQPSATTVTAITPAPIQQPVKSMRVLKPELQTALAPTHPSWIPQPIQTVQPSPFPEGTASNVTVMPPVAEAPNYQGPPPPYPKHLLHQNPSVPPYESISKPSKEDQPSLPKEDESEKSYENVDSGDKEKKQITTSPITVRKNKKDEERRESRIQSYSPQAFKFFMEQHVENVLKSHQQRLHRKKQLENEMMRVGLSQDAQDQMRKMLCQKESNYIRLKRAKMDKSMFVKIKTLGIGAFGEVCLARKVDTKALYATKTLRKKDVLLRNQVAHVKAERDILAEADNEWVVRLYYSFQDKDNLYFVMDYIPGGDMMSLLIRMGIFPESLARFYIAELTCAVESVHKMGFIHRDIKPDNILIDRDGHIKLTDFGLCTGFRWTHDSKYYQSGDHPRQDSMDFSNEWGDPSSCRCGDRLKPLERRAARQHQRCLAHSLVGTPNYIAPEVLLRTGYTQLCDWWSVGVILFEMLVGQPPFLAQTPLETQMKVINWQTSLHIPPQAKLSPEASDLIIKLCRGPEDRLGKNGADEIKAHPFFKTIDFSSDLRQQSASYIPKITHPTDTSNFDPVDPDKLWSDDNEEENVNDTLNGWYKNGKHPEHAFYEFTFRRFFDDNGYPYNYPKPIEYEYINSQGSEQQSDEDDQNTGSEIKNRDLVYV

[6] = target: T3, Inhibitor of nuclear factor kappa-B kinase subunit alpha (Homo sapiens) (UniProt O15111)
T3 sequence (whole entry): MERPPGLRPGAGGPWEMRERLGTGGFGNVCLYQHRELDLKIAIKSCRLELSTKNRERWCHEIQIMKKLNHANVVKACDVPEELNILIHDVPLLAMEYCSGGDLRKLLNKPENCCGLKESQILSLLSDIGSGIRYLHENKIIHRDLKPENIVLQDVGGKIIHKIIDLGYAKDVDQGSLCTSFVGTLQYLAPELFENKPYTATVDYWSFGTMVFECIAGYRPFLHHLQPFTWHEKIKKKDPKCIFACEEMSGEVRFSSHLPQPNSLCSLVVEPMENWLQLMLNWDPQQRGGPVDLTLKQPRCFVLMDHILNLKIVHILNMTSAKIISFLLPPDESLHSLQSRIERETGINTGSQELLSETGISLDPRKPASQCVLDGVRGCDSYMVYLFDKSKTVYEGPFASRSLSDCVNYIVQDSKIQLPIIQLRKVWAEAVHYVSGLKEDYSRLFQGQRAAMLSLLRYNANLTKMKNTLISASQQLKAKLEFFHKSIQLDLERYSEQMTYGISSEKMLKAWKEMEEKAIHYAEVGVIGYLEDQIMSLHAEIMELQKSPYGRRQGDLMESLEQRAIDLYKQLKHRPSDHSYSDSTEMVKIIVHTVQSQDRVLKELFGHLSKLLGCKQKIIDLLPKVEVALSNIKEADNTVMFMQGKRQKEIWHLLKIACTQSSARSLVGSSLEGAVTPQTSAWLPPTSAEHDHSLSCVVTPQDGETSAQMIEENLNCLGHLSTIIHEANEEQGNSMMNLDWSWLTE

[7] = target: Vasopressin V1a receptor (Homo sapiens) (UniProt P37288); experiment: Selectivity interaction (Panel of kinases, GPCRs, ion channels and transporters (enzymatic assay)) EUB0000223bCl AVPR1A
Sequence of Vasopressin V1a receptor (Homo sapiens) (P37288 whole entry, looked up): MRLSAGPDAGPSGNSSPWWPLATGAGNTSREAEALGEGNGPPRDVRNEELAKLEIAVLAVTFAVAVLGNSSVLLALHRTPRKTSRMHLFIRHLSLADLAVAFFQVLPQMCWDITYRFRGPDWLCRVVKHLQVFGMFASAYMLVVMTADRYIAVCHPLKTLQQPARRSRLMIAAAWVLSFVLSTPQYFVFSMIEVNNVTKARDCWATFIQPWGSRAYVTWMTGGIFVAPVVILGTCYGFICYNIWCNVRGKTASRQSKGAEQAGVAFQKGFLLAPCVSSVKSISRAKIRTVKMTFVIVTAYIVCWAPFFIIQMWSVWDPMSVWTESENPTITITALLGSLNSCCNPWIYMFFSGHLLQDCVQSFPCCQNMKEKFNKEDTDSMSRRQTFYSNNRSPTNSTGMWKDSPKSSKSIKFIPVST

[8] = target: ALK tyrosine kinase receptor (Homo sapiens, UniProt Q9UM73); experiment: Selectivity interaction (KinomeScan (DiscoverX)) EUB0000655a ALK; details: at 10 µM
Sequence of ALK tyrosine kinase receptor (Q9UM73 19-1620 limits assumed): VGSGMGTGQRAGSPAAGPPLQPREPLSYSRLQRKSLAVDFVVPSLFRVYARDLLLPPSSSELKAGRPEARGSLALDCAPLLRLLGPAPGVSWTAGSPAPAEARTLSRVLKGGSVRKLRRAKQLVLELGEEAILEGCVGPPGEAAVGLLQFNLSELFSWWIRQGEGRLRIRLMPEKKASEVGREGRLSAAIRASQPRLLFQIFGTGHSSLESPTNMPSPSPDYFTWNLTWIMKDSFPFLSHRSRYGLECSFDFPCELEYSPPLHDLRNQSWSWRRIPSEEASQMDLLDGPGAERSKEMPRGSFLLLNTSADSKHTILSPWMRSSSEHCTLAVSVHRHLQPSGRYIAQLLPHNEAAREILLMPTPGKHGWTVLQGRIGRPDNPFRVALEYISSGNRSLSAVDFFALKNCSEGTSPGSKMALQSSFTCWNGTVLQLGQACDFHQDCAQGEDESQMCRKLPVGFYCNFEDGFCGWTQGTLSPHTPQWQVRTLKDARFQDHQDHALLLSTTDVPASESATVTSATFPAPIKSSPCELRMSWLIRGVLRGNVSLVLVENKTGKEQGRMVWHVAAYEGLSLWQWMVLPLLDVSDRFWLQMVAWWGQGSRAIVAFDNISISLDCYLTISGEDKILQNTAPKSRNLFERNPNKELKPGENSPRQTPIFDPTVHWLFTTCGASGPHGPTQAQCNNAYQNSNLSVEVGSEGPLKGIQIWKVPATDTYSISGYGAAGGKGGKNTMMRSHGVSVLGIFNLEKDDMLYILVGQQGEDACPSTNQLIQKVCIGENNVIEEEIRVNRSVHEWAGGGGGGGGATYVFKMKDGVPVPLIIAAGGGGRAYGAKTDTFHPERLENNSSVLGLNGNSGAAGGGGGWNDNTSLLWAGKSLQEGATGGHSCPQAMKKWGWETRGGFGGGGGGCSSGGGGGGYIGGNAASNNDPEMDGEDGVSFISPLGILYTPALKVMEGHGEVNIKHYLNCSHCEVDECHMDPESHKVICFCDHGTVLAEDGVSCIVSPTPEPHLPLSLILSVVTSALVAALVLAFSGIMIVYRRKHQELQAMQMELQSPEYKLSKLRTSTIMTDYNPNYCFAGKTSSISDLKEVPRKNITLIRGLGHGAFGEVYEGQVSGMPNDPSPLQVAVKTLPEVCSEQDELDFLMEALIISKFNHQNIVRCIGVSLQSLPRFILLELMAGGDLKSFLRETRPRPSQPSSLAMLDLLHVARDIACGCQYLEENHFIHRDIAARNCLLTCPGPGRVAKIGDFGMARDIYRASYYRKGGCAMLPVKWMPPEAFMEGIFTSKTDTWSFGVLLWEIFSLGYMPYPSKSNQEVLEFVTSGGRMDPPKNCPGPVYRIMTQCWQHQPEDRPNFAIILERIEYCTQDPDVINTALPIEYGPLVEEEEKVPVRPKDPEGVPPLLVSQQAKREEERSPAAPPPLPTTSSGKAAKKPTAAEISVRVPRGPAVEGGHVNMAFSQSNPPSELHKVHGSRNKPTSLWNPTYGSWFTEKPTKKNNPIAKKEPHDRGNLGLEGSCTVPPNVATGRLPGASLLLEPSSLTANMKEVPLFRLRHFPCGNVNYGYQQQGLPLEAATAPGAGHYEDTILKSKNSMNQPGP

Sequence of Cell division control protein 42 homolog (Homo sapiens) (P60953 whole entry, looked up): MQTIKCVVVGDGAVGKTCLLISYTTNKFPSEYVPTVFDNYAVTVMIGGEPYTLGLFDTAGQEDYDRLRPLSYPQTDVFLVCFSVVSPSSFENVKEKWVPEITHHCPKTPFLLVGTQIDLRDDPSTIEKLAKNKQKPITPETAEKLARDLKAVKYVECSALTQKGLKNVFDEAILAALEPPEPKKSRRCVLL

CNC(=O)Nc1ccc(-c2nc(N3CC4CCC(C3)O4)c3cnn(C4CCC5(CC4)OCCO5)c3n2)cc1
% of inhibition [1]: 7%

CC[C@@H]1[C@H](F)C(=O)N[C@@H]1COc1nccc2cc(C(N)=O)c(OC)cc12 [ZIMLOVISERTIB]
% of inhibition [2]: -1.8% | % of inhibition [3]: 6.1%

CN(C(=O)c1cnn2cccnc12)c1cc2c(cc1N1CCOCC1)C(=O)N(C[C@@H](F)C(C)(C)O)C2
dTM [4]: 0.2 K

COCC(=O)NC/C=C/c1ccc2ncnc(Nc3ccc(Oc4ccc(C)nc4)c(C)c3)c2c1 [CP-724714]
% of control [5]: 100%

Cc1cnc(Nc2ccc(F)cc2Cl)nc1-c1c[nH]c(C(=O)N[C@H](CO)c2cccc(Cl)c2)c1
% of inhibition [6]: 0%

COc1cc(C(=O)N2CC[C@@H](O)[C@@H](N)C2)cc2nc(-c3cc4ccccc4n3CC3CC3)n(C)c12
pXC50 [7]: 4.6 M

CN(C)CCOc1ccc(-c2nc(-c3ccncc3)c(-c3ccc4c(c3)CC/C4=N\O)[nH]2)cc1
% of control [8]: 45%
